Results reported in the supplement of paper PMC11061612.

What was measured:
Test in all cases: Bliss excess, mean over the matrix (fraction); higher = more synergy
[1] = tested on: 23132-87 (Gastric Carcinoma)
Summary of the method: (§1)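 Cell lines in DMEM/F12 or RPMI with 10% FBS were plated in 1536-well plates, held 24 hours at 37°C, 5% CO2, then given two-drug dose matrices for 72 hours (DMSO typically 0.2%). Viability was read by CellTiter-Glo 2.0 luminescence and scaled as inhibition from 0 (vehicle wells) to 1 (blank wells). Combination Emax is the second-highest inhibition in the matrix; Bliss excess is observed combination effect minus expected EA + EB − EA·EB, EA and EB being single-agent effects.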

A2058 (Melanoma) = tested on: A2058 (Melanoma)
Summary of the method: as §1

[2] = tested on: COLO-680N (Esophageal Squamous Cell Carcinoma)
Summary of the method: as §1

[3] = tested on: HCT-15 (Colorectal Carcinoma)
Summary of the method: as §1

[4] = tested on: HEC-1 (Endometrial Carcinoma)
Summary of the method: as §1

[5] = tested on: KE-37 (T-Lymphoblastic Leukemia)
Summary of the method: as §1

[6] = tested on: LB996-RCC (Kidney Carcinoma)
Summary of the method: as §1

LN-229 (Glioblastoma) = tested on: LN-229 (Glioblastoma)
Summary of the method: as §1

[7] = tested on: MKN45 (Gastric Carcinoma)
Summary of the method: as §1

[8] = tested on: NCI-H23 (Lung Adenocarcinoma)
Summary of the method: as §1

[9] = tested on: PANC-03-27 (Pancreatic Carcinoma)
Summary of the method: as §1

[10] = tested on: PC-3_[JPC-3] (Lung Adenocarcinoma)
Summary of the method: as §1

[11] = tested on: RCM-1 (Colorectal Carcinoma)
Summary of the method: as §1

[12] = tested on: RERF-GC-1B (Gastric Carcinoma)
Summary of the method: as §1

[13] = tested on: RERF-LC-Sq1 (Squamous Cell Lung Carcinoma)
Summary of the method: as §1

[14] = tested on: RKN (Other Solid Carcinomas)
Summary of the method: as §1

SF539 (Glioblastoma) = tested on: SF539 (Glioblastoma)
Summary of the method: as §1

[15] = tested on: SU-DHL-10 (B-Cell Non-Hodgkin's Lymphoma)
Summary of the method: as §1

[16] = tested on: TE-8 (Esophageal Squamous Cell Carcinoma)
Summary of the method: as §1

WM793B (Melanoma) = tested on: WM793B (Melanoma)
Summary of the method: as §1

| SMILES | Bliss excess [1] | Bliss excess (A2058 (Melanoma)) | Bliss excess [2] | Bliss excess [3] | Bliss excess [4] | Bliss excess [5] | Bliss excess [6] | Bliss excess (LN-229 (Glioblastoma)) | Bliss excess [7] | Bliss excess [8] | Bliss excess [9] | Bliss excess [10] | Bliss excess [11] | Bliss excess [12] | Bliss excess [13] | Bliss excess [14] | Bliss excess (SF539 (Glioblastoma)) | Bliss excess [15] | Bliss excess [16] | Bliss excess (WM793B (Melanoma)) |
| --- | --- | --- | --- | --- | --- | --- | --- | --- | --- | --- | --- | --- | --- | --- | --- | --- | --- | --- | --- | --- |
| CCN(CCO)CCCOc1ccc2c(Nc3cc(CC(=O)Nc4cccc(F)c4)[nH]n3)ncnc2c1 [AZD2811] + C[C@@H]1COCCN1C2=NC(=NC(=C2)C3(CC3)[S@](=N)(=O)C)C4=C5C=CNC5=NC=C4 [AZD6738] (first compound max 1 µM, 7x7, partner max 10 µM) | -0.0087 | 0.0067 | -0.0737 | -0.0592 | -0.0175 | -0.0515 | 0.0304 | -0.0563 | -0.0439 | -0.0308 | -0.123 | -0.0453 | -0.0263 | 0.0143 | -0.0169 | 0.0009 | -0.0262 | -0.0609 | -0.0484 | -0.0709 |
| CCN(CCO)CCCOc1ccc2c(Nc3cc(CC(=O)Nc4cccc(F)c4)[nH]n3)ncnc2c1 [AZD2811] + O=C(c1cc(Cc2n[nH]c(=O)c3ccccc23)ccc1F)N1CCN(C(=O)C2CC2)CC1 [Olaparib] (first compound max 1 µM, 7x7, partner max 10 µM) | 0.0143 | 0.0093 | -0.0439 | -0.0009 | -0.0059 | -0.0019 | 0.025 | -0.0223 | -0.0434 | 0.0076 | -0.0161 | -0.0067 | -0.04 | -0.0572 | 0.0361 | 0.0029 | 0.0434 | -0.187 | -0.013 | -0.015 |
| CN(CCO)CC[C@H](CSc1ccccc1)Nc1ccc(S(=O)(=O)NC(=O)c2ccc(N3CCC([C@@H](O)c4ccccc4-c4ccc(Cl)cc4)CC3)cc2)cc1S(=O)(=O)C(F)(F)F [AZD4320] + C1CN(CCC1(C(=O)N[C@@H](CCO)C2=CC=C(C=C2)Cl)N)C3=NC=NC4=C3C=CN4 [Capivasertib] (first compound max 1 µM, 7x7, partner max 3 µM) | -0.0483 | -0.032 | -0.0411 | -0.0435 | -0.0759 | 0.0185 | 0.0014 | -0.0443 | -0.0977 | -0.0273 | -0.0481 | -0.0961 | -0.0768 | 0.0036 | -0.0223 | -0.0321 | -0.0352 | 0.0129 | -0.0074 | -0.0384 |
| CN(CCO)CC[C@H](CSc1ccccc1)Nc1ccc(S(=O)(=O)NC(=O)c2ccc(N3CCC([C@@H](O)c4ccccc4-c4ccc(Cl)cc4)CC3)cc2)cc1S(=O)(=O)C(F)(F)F [AZD4320] + CCN(CCO)CCCOc1ccc2c(Nc3cc(CC(=O)Nc4cccc(F)c4)[nH]n3)ncnc2c1 [AZD2811] (first compound max 1 µM, 7x7, partner max 1 µM) | -0.0339 | 0.0723 | -0.0373 | -0.0189 | -0.0049 | -0.0049 | 0.0389 | -0.0074 | -0.0438 | 0.0244 | 0.0197 | -0.0598 | -0.0207 | -0.0034 | 0.0012 | -0.0481 | 0.0862 | -0.0949 | 0.0845 | 0.0038 |
| CN(CCO)CC[C@H](CSc1ccccc1)Nc1ccc(S(=O)(=O)NC(=O)c2ccc(N3CCC([C@@H](O)c4ccccc4-c4ccc(Cl)cc4)CC3)cc2)cc1S(=O)(=O)C(F)(F)F [AZD4320] + CN(C)CCCOc1ccc(-c2ccc3ncc4c(c3c2)n(C2CCOCC2)c(=O)n4C)cn1 [AZD0156] (first compound max 1 µM, 7x7, partner max 1 µM) | -0.0277 | -0.0134 | -0.028 | -0.0438 | -0.0414 | -0.0045 | -0.0541 | -0.0218 | -0.0612 | -0.0118 | -0.0459 | -0.0583 | -0.0538 | 0.0211 | -0.0601 | -0.0417 | -0.0163 | -0.0158 | -0.0277 | -0.0564 |
| CN(CCO)CC[C@H](CSc1ccccc1)Nc1ccc(S(=O)(=O)NC(=O)c2ccc(N3CCC([C@@H](O)c4ccccc4-c4ccc(Cl)cc4)CC3)cc2)cc1S(=O)(=O)C(F)(F)F [AZD4320] + C[C@@H]1COCCN1C2=NC(=NC(=C2)C3(CC3)[S@](=N)(=O)C)C4=C5C=CNC5=NC=C4 [AZD6738] (first compound max 1 µM, 7x7, partner max 10 µM) | 0.0832 | -0.0088 | -0.0302 | 0.0099 | 0.0028 | -0.0133 | -0.0179 | 0.0358 | -0.0471 | -0.0073 | -0.0392 | -0.0469 | -0.0391 | 0.072 | -0.0082 | -0.03 | -0.0706 | 0.0076 | -0.0357 | -0.0406 |
| CN(CCO)CC[C@H](CSc1ccccc1)Nc1ccc(S(=O)(=O)NC(=O)c2ccc(N3CCC([C@@H](O)c4ccccc4-c4ccc(Cl)cc4)CC3)cc2)cc1S(=O)(=O)C(F)(F)F [AZD4320] + C[C@@H](Nc1cc(F)cc(F)c1)c1cc(C(=O)N(C)C)cc2c(=O)cc(N3CCOCC3)oc12 [AZD8186] (first compound max 1 µM, 7x7, partner max 3 µM) | -0.031 | 0.0157 | 0.0088 | 0.0162 | 0.0133 | 0.0866 | 0.0394 | 0.0166 | -0.0724 | 0.08 | 0.0439 | -0.0176 | -0.0416 | 0.0112 | -0.0169 | -0.0338 | 0.0425 | 0.0092 | 0.008 | 0.0434 |
| CN(CCO)CC[C@H](CSc1ccccc1)Nc1ccc(S(=O)(=O)NC(=O)c2ccc(N3CCC([C@@H](O)c4ccccc4-c4ccc(Cl)cc4)CC3)cc2)cc1S(=O)(=O)C(F)(F)F [AZD4320] + Cc1cc2ncnn2cc1Nc1ncc2c(n1)n(C1CCOCC1)c(=O)n2C [AZD7648] (first compound max 1 µM, 7x7, partner max 10 µM) | -0.0311 | -0.0231 | -0.0437 | -0.0202 | -0.0402 | 0.0363 | -0.0232 | -0.0393 | -0.0744 | -0.0298 | -0.061 | -0.0635 | -0.0153 | 0.0231 | -0.0418 | -0.0467 | 0.0095 | 0.0212 | -0.0357 | -0.0234 |
| COc1nnc2ccc(N3CCC(c4ccc(OCCN5CCN(C)C(=O)[C@H]5C)cc4)CC3)nn12 [AZD5153] + C=CCn1c(=O)c2cnc(Nc3ccc(N4CCN(C)CC4)cc3)nc2n1-c1cccc(C(C)(C)O)n1 [AZD1775] (first compound max 1 µM, partner max 1 µM) | 0.0309 | -0.0175 | -0.0746 | -0.0738 | 0.0363 | 0.0096 | -0.052 | -0.039 | -0.105 | -0.027 | -0.152 | -0.06 | -0.0498 | -0.114 | -0.1 | -0.0898 | -0.0303 | -0.0044 | -0.0426 | -0.0265 |
| COc1nnc2ccc(N3CCC(c4ccc(OCCN5CCN(C)C(=O)[C@H]5C)cc4)CC3)nn12 [AZD5153] + CC1(C)CCC(CN2CCN(c3ccc(C(=O)NS(=O)(=O)c4ccc(NCC5CCOCC5)c([N+](=O)[O-])c4)c(Oc4cnc5[nH]ccc5c4)c3)CC2)=C(c2ccc(Cl)cc2)C1 [Venetoclax] (first compound max 1 µM, 7x7, partner max 1 µM) | -0.0697 | -0.0876 | -0.0372 | -0.0242 | -0.0443 | -0.0133 | -0.0178 | -0.0496 | -0.0389 | -0.0473 | -0.0422 | -0.111 | -0.0191 | -0.0442 | -0.0246 | -0.0369 | -0.0797 | -0.0221 | -0.0838 | -0.0525 |
| COc1nnc2ccc(N3CCC(c4ccc(OCCN5CCN(C)C(=O)[C@H]5C)cc4)CC3)nn12 [AZD5153] + CCN(CCO)CCCOc1ccc2c(Nc3cc(CC(=O)Nc4cccc(F)c4)[nH]n3)ncnc2c1 [AZD2811] (first compound max 1 µM, 7x7, partner max 1 µM) | -0.0223 | 0.0568 | -0.0833 | -0.0143 | -0.0176 | -0.0085 | -0.106 | 0.0112 | -0.01 | -0.0412 | -0.0487 | -0.0306 | -0.03 | -0.096 | 0.0063 | -0.0286 | -0.0184 | -0.049 | -0.0152 | -0.0567 |
| COc1nnc2ccc(N3CCC(c4ccc(OCCN5CCN(C)C(=O)[C@H]5C)cc4)CC3)nn12 [AZD5153] + C[C@@H]1COCCN1C2=NC(=NC(=C2)C3(CC3)[S@](=N)(=O)C)C4=C5C=CNC5=NC=C4 [AZD6738] (first compound max 1 µM, 7x7, partner max 10 µM) | 0.0394 | 0.0671 | 0.0046 | 0.0267 | 0.0625 | 0.0286 | -0.0142 | 0.0224 | -0.0649 | -0.0105 | -0.091 | 0.0651 | -0.115 | 0.0429 | 0.0033 | -0.0757 | 0.0418 | -0.038 | 0.0176 | -0.0158 |
| COc1nnc2ccc(N3CCC(c4ccc(OCCN5CCN(C)C(=O)[C@H]5C)cc4)CC3)nn12 [AZD5153] + Cc1c2c(nn1C)CSCc1cc(n(C)n1)CSc1cc(c3ccccc3c1)OCCCc1c(C(=O)O)n(C)c3c-2c(Cl)ccc13 [AZD5991] (first compound max 1 µM, 7x7, partner max 1 µM) | 0.0791 | 0.067 | -0.0205 | -0.0709 | 0.0132 | 0.116 | 0.0015 | 0.0175 | -0.0635 | -0.086 | -0.0183 | -0.0149 | -0.0512 | 0.0602 | -0.0393 | -0.0692 | -0.0273 | -0.03 | 0.0322 | -0.0303 |
